Experimental data reported in patent publication US8802597B2, “Herbicidal pyrimidines” (E I du Pont de Nemours and Company, priority 2003, dated 2014).

Columns and labels:
Assay type in all cases: in vivo
[1] = tested on: barnyardgrass (Echinochloa crus-galli); test: Test A pre/postemergence
How it was run: (§1)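 Seeds sown in loam–sand blend received a preemergence directed soil spray of test chemical in non-phytotoxic solvent with surfactant; same-formulation postemergence spray given concurrently to plants 2–10 cm tall at 1- to 2-leaf stage. Greenhouse ~ten days, then visual injury rating versus untreated controls, 0 (no effect) to 100 (complete control).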

[2] = tested on: crabgrass (Digitaria sanguinalis); test: Test A pre/postemergence
How it was run: as §1

[3] = tested on: giant foxtail (Setaria faberi); test: Test A pre/postemergence
How it was run: as §1

[4] = tested on: morningglory (Ipomoea spp.); test: Test A pre/postemergence
How it was run: as §1

[5] = tested on: redroot pigweed (Amaranthus retroflexus); test: Test A pre/postemergence
How it was run: as §1

[6] = tested on: velvetleaf (Abutilon theophrasti); test: Test A pre/postemergence
How it was run: as §1

[7] = tested on: barnyardgrass (Echinochloa crus-galli); test: Test E flooded paddy water application; conditions: Flood, 21 days, scale 0 to 100 (0 no effect, 100 complete control)
How it was run: (§2)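 Response scored visually on a 0–100 scale (100 = complete control) at 21 days against untreated pots. Treatment was into paddy water 3 cm deep over silt loam, with plants at the 2.0–2.5-leaf stage, grown under 16-h light at 29.5/26.7 °C day/night.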

[8] = tested on: bearded (brdd.) sprangletop (Leptochloa fusca ssp. fascicularis); test: Test E flooded paddy water application; conditions: Flood, 21 days, scale 0 to 100 (0 no effect, 100 complete control)
How it was run: as §2

[9] = tested on: ducksalad (Heteranthera limosa); test: Test E flooded paddy water application; conditions: Flood, 21 days, scale 0 to 100 (0 no effect, 100 complete control)
How it was run: as §2

[10] = tested on: early watergrass (Echinochloa oryzoides); test: Test E flooded paddy water application; conditions: Flood, 21 days, scale 0 to 100 (0 no effect, 100 complete control)
How it was run: as §2

[11] = tested on: junglerice (Echinochloa colona); test: Test E flooded paddy water application; conditions: Flood, 21 days, scale 0 to 100 (0 no effect, 100 complete control)
How it was run: as §2

[12] = tested on: late watergrass (Echinochloa oryzicola); test: Test E flooded paddy water application; conditions: Flood, 21 days, scale 0 to 100 (0 no effect, 100 complete control)
How it was run: as §2

[13] = tested on: purple redstem (Ammannia coccinea); test: Test E flooded paddy water application; conditions: Flood, 21 days, scale 0 to 100 (0 no effect, 100 complete control)
How it was run: as §2

[14] = tested on: rice flatsedge (Cyperus iria); test: Test E flooded paddy water application; conditions: Flood, 21 days, scale 0 to 100 (0 no effect, 100 complete control)
How it was run: as §2

[15] = tested on: smallflower umbrella sedge (Cyperus difformis); test: Test E flooded paddy water application; conditions: Flood, 21 days, scale 0 to 100 (0 no effect, 100 complete control)
How it was run: as §2

[16] = tested on: transplanted rice seedlings (Oryza sativa cv. ‘Japonica-M202’); test: Test E flooded paddy water application; conditions: Flood, 21 days, scale 0 to 100 (0 no effect, 100 complete control)
How it was run: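 Greenhouse pots of Tama silt loam with weeds and rice at 2.0–2.5-leaf stage, flooded to 3 cm; compounds applied directly into paddy water, depth maintained. Visual rating versus untreated controls after 21 days, 0 (no effect) to 100 (complete control); 29.5/26.7 °C, 16-h photoperiod.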

[17] = tested on: water seeded rice seedlings (Oryza sativa cv. ‘Japonica-M202’); test: Test E flooded paddy water application; conditions: Flood, 21 days, scale 0 to 100 (0 no effect, 100 complete control)
How it was run: as §2

[18] = Postemergence, 125 g ai/ha, 0 to 100 scale (0 no effect, 100 complete control)
[19] = Postemergence, 500 g ai/ha, 0 to 100 scale (0 no effect, 100 complete control)
[20] = Preemergence, 125 g ai/ha, 0 to 100 scale where 0 is no effect and 100 is complete control, approximately ten days
[21] = Preemergence, 500 g ai/ha, 0 to 100 scale where 0 is no effect and 100 is complete control, approximately ten days

CCOC(=O)c1nc(-c2ccc(Cl)cc2Cl)nc(N)c1Br [Compound 67]
Plant response rating, Barnyardgrass [1, 18]: 0
Plant response rating, Barnyardgrass [1, 19]: 0
Plant response rating, Barnyardgrass [1, 20]: 0
Plant response rating, Barnyardgrass [1, 21]: 0
Plant response rating, Crabgrass [2, 18]: 5
Plant response rating, Crabgrass [2, 19]: 5
Plant response rating, Crabgrass [2, 20]: 0
Plant response rating, Crabgrass [2, 21]: 30
Plant response rating, Foxtail, Giant [3, 18]: 0
Plant response rating, Foxtail, Giant [3, 19]: 0
Plant response rating, Foxtail, Giant [3, 20]: 0
Plant response rating, Foxtail, Giant [3, 21]: 30
Plant response rating, Morningglory [4, 18]: 50
Plant response rating, Morningglory [4, 19]: 60
Plant response rating, Morningglory [4, 20]: 0
Plant response rating, Morningglory [4, 21]: 0
Plant response rating, Pigweed [5, 18]: 90
Plant response rating, Pigweed [5, 19]: 90
Plant response rating, Pigweed [5, 20]: 10
Plant response rating, Pigweed [5, 21]: 75
Plant response rating, Velvetleaf [6, 18]: 65
Plant response rating, Velvetleaf [6, 19]: 75
Plant response rating, Velvetleaf [6, 20]: 10
Plant response rating, Velvetleaf [6, 21]: 40
Barnyardgrass plant response rating ([7]; 32 g ai/ha): 0
Barnyardgrass plant response rating ([7]; 64 g ai/ha): 0
Barnyardgrass plant response rating ([7]; 125 g ai/ha): 40
Barnyardgrass plant response rating ([7]; 250 g ai/ha): 40
Plant response rating, Barnyardgrass ([7]; 16 g ai/ha): 0
Sprangletop, Brdd. plant response rating ([8]; 32 g ai/ha): 0
Sprangletop, Brdd. plant response rating ([8]; 64 g ai/ha): 0
Sprangletop, Brdd. plant response rating ([8]; 125 g ai/ha): 30
Sprangletop, Brdd. plant response rating ([8]; 250 g ai/ha): 30
Plant response rating, Sprangletop, Brdd. ([8]; 16 g ai/ha): 0
Ducksalad plant response rating ([9]; 32 g ai/ha): 100
Ducksalad plant response rating ([9]; 64 g ai/ha): 100
Ducksalad plant response rating ([9]; 125 g ai/ha): 100
Ducksalad plant response rating ([9]; 250 g ai/ha): 100
Plant response rating, Ducksalad ([9]; 16 g ai/ha): 85
Watergrass, Early plant response rating ([10]; 32 g ai/ha): 0
Watergrass, Early plant response rating ([10]; 64 g ai/ha): 0
Watergrass, Early plant response rating ([10]; 125 g ai/ha): 0
Watergrass, Early plant response rating ([10]; 250 g ai/ha): 0
Plant response rating, Watergrass, Early ([10]; 16 g ai/ha): 0
Junglerice plant response rating ([11]; 32 g ai/ha): 0
Junglerice plant response rating ([11]; 64 g ai/ha): 0
Junglerice plant response rating ([11]; 125 g ai/ha): 30
Junglerice plant response rating ([11]; 250 g ai/ha): 65
Plant response rating, Junglerice ([11]; 16 g ai/ha): 0
Watergrass, Late plant response rating ([12]; 32 g ai/ha): 0
Watergrass, Late plant response rating ([12]; 64 g ai/ha): 0
Watergrass, Late plant response rating ([12]; 125 g ai/ha): 0
Watergrass, Late plant response rating ([12]; 250 g ai/ha): 0
Plant response rating, Watergrass, Late ([12]; 16 g ai/ha): 0
Redstem plant response rating ([13]; 32 g ai/ha): 0
Redstem plant response rating ([13]; 64 g ai/ha): 0
Redstem plant response rating ([13]; 125 g ai/ha): 0
Redstem plant response rating ([13]; 250 g ai/ha): 85
Plant response rating, Redstem ([13]; 16 g ai/ha): 0
Flatsedge, Rice plant response rating ([14]; 32 g ai/ha): 0
Flatsedge, Rice plant response rating ([14]; 64 g ai/ha): 30
Flatsedge, Rice plant response rating ([14]; 125 g ai/ha): 60
Flatsedge, Rice plant response rating ([14]; 250 g ai/ha): 60
Plant response rating, Flatsedge, Rice ([14]; 16 g ai/ha): 0
Sedge, Umbrella plant response rating ([15]; 32 g ai/ha): 0
Sedge, Umbrella plant response rating ([15]; 64 g ai/ha): 0
Sedge, Umbrella plant response rating ([15]; 125 g ai/ha): 40
Sedge, Umbrella plant response rating ([15]; 250 g ai/ha): 70
Plant response rating, Sedge, Umbrella ([15]; 16 g ai/ha): 0
Rice, Transplanted plant response rating ([16]; 32 g ai/ha): 0
Rice, Transplanted plant response rating ([16]; 64 g ai/ha): 0
Rice, Transplanted plant response rating ([16]; 125 g ai/ha): 0
Rice, Transplanted plant response rating ([16]; 250 g ai/ha): 0
Plant response rating, Rice, Transplanted ([16]; 16 g ai/ha): 0
Rice, Water Seeded plant response rating ([17]; 32 g ai/ha): 0
Rice, Water Seeded plant response rating ([17]; 64 g ai/ha): 0
Rice, Water Seeded plant response rating ([17]; 125 g ai/ha): 0
Rice, Water Seeded plant response rating ([17]; 250 g ai/ha): 0
Plant response rating, Rice, Water Seeded ([17]; 16 g ai/ha): 0
